Key:
Test in all cases: fluorescence titration
[1] = test system: G4 (DNA, G4) TTTTGGGGTTTT; conditions: K+ 10 mM, Mg2+ 1 mM; 50 mM Tris-borate pH 8.3 (TB), 25 °C; 1:1 model
[2] = test system: G8 (DNA, G4) TTTTGGGGGGGGTTTT; conditions: K+ 10 mM, Mg2+ 1 mM; 50 mM Tris-borate pH 8.3 (TB), 25 °C; 1:1 model
[3] = test system: G4T4G4 (DNA, G4) GGGGTTTTGGGG; conditions: K+ 5 mM, Li+ 95 mM; 10 mM lithium cacodylate pH 7.2 (5K), 25 °C; 1:1 model

Ka [1]: (1.4 ± 0.2) × 10^6 L·mol^-1
Ka [2]: (1.7 ± 0.2) × 10^6 L·mol^-1
Ka [3]: (1.26 ± 0.07) × 10^7 L·mol^-1
Compound: CCc1c(C)c2cc3nc(cc4nc(cc5c(CC)c(C)c(cc1[nH]2)n5C)C(C)=C4CCC(=O)O)C(CCC(=O)O)=C3C

Reference: publication PMC4163640 (2014)
